Measured values as given in ChEMBL document CHEMBL4177704, “Synthesis and biological evaluation of water-soluble derivatives of chiral gossypol as HIV fusion inhibitors targeting gp41” (Bioorg Med Chem Lett, 2018).
Where “and” joins values, the source holds several entries; their conditions need not be identical. Identical values can stand only once. Calls of active or inactive are those of the source. No cut-off for these calls is given here.

Key:
[1] = tested on: Human immunodeficiency virus 1; test: Antiviral activity against HIV-1 3B infected in human TZM-bl cells treated for 2 hrs followed by compound washout measured after 2 days by luciferase reporter assay; assay type: functional, organism-based
[2] = Selectivity index, ratio of CC50 for human TZM-bl cells to IC50 for HIV-1 3B infected in human TZM-bl cells; assay type: toxicity, cell-based
[3] = (§1) Cytotoxicity against human TZM-bl cells after 72 hrs by MTT assay; assay type: cell-based; conditions: TZM-bl cells
[4] = tested on: Human immunodeficiency virus 1; test: Antiviral activity against HIV-1 3B infected in human TZM-bl cells at 10 uM treated 2 to 6 hrs post infection for 2 hrs followed by compound washout measured after 2 days by luciferase reporter assay; assay type: functional, organism-based
[5] = tested on: Human immunodeficiency virus 1; test: Antiviral activity against HIV-1 3B infected in human TZM-bl cells at 10 uM treated simultaneously with viral infection for 2 hrs followed by compound washout measured after 2 days by luciferase reporter assay; assay type: functional, organism-based
[6] = tested on: Human immunodeficiency virus 1; test: Antiviral activity against X4R5 tropic HIV-1 93TH051 expressing Env subtype E infected in human PBMC assessed as reduction in p24 expression levels after 4 days by ELISA; assay type: functional, organism-based; conditions: Human immunodeficiency virus 1, 93TH051, PBMC, 96 h
[7] = Spermicidal activity against mouse sperm assessed as motility of sperm at 100 uM after 1 hr by hemocytometric analysis; assay type: ADME
[8] = target: Envelope glycoprotein gp160 (Human immunodeficiency virus 1, UniProt Q6QLK5); test: Inhibition of HIV gp41 6-helix bundle formation preincubated with C34 and N36 for 30 mins
Sequence of Envelope glycoprotein gp160 (Q6QLK5 whole entry): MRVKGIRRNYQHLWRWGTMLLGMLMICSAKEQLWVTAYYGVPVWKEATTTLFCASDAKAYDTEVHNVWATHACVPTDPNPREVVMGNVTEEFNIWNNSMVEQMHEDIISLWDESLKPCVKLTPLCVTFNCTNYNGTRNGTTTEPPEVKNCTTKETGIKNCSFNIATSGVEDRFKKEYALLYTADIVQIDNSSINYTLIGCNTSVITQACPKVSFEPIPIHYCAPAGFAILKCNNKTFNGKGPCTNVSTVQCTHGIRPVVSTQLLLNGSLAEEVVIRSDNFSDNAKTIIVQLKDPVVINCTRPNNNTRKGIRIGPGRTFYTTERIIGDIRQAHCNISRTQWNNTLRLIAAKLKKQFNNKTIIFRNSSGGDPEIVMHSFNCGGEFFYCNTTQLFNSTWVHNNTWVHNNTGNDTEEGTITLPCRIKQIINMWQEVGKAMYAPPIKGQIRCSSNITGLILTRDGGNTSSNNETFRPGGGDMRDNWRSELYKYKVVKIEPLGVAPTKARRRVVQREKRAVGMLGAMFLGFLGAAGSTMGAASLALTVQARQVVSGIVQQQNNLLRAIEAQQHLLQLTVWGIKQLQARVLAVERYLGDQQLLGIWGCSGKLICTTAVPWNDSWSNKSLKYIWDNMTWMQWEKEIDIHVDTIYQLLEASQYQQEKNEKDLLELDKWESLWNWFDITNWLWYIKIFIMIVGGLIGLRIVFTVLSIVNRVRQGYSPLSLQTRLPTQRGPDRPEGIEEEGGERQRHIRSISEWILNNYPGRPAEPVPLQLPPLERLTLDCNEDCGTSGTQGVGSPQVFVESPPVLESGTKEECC

TZM = test: as §1; assay type: cell-based; conditions: tzm, 72 h
[9] = Human immunodeficiency virus 1, 3B, TZM-bl

| IC50 [1] [µM] | Molecule | Ratio CC50/IC50 [2] | CC50 at 72 h [3] [µM] | also measured |
| --- | --- | --- | --- | --- |
| 5.92 | Cc1cc2c(c(O)c1-c1c(C)cc3c(c1O)/C(=C/N[C@H](C(=O)[O-])C(C)C)C(=O)C(O)=C3C(C)C)/C(=C/N[C@H](C(=O)[O-])C(C)C)C(=O)C(O)=C2C(C)C.[Na+].[Na+] (stereo in doubt; (+)-9b) | 10.78 | 63.8 |  |
| 1.17 | Cc1cc2c(c(O)c1-c1c(C)cc3c(c1O)/C(=C/NC(C)S(=O)(=O)[O-])C(=O)C(O)=C3C(C)C)/C(=C/NC(C)S(=O)(=O)[O-])C(=O)C(O)=C2C(C)C.[Na+].[Na+] (single isomer, unassigned; (-)) |  |  | IC50 [6]: 1.56 µM; selectivity ratio ([2]; TZM-bl cells, read-out: Ratio CC50/IC50): 32.3; Activity [7]: Non-Toxic; IC50 [8]: 7.34 µM; CC50 (TZM): 37.8 µM |
| 7.64 | Cc1cc2c(c(O)c1-c1c(C)cc3c(c1O)/C(=C/N[C@@H]1[C@@H](O)[C@H](O)[C@@H](CO)O[C@H]1O)C(=O)C(O)=C3C(C)C)/C(=C/N[C@@H]1[C@@H](O)[C@H](O)[C@@H](CO)O[C@H]1O)C(=O)C(O)=C2C(C)C (stereo in doubt; (+)-1b) | 4.3 | 32.9 |  |
| 0.72 | Cc1cc2c(c(O)c1-c1c(C)cc3c(c1O)/C(=C/N[C@@H]1[C@@H](O)[C@H](O)[C@@H](CO)O[C@H]1O)C(=O)C(O)=C3C(C)C)/C(=C/N[C@@H]1[C@@H](O)[C@H](O)[C@@H](CO)O[C@H]1O)C(=O)C(O)=C2C(C)C (stereo in doubt; (-)-1a) [listing 1 of 2 here] | 32.12 |  | IC50 [6]: 1.22 µM; Activity [7]: Non-Toxic; IC50 [8]: 6.36 µM; CC50 (TZM): 23.1 µM |
| 4.22 | CC[C@H](C)[C@H](N/C=C1\C(=O)C(O)=C(C(C)C)c2cc(C)c(-c3c(C)cc4c(c3O)/C(=C/N[C@H](C(=O)[O-])[C@@H](C)CC)C(=O)C(O)=C4C(C)C)c(O)c21)C(=O)[O-].[Na+].[Na+] (stereo in doubt; (+)-11b) | 17.5 | 73.9 |  |
| 4.13 | Cc1cc2c(c(O)c1-c1c(C)cc3c(c1O)/C(=C/N[C@@H](C)C(=O)[O-])C(=O)C(O)=C3C(C)C)/C(=C/N[C@@H](C)C(=O)[O-])C(=O)C(O)=C2C(C)C.[Na+].[Na+] (stereo in doubt; (+)-8b) | 17.59 | 72.6 |  |
| 7.16 | Cc1cc2c(c(O)c1-c1c(C)cc3c(c1O)/C(=C/N[C@@H](CC(C)C)C(=O)[O-])C(=O)C(O)=C3C(C)C)/C(=C/N[C@@H](CC(C)C)C(=O)[O-])C(=O)C(O)=C2C(C)C.[Na+].[Na+] (stereo in doubt; (+)-10b) | 8.4 | 60.1 |  |
| 4.28 | Cc1cc2c(c(O)c1-c1c(C)cc3c(c1O)/C(=C/NC(C)C(=O)NCC(=O)[O-])C(=O)C(O)=C3C(C)C)/C(=C/NC(C)C(=O)NCC(=O)[O-])C(=O)C(O)=C2C(C)C.[Na+].[Na+] (single isomer, unassigned; (+)) | 14.28 | 61.1 |  |

Continued, molecule first:

| Molecule | IC50 [1] [µM] | Ratio CC50/IC50 [2] | CC50 at 72 h [3] [µM] | also measured |
| --- | --- | --- | --- | --- |
| Cc1cn([C@H]2C[C@H](N=[N+]=[N-])[C@@H](CO)O2)c(=O)[nH]c1=O [ZIDOVUDINE] |  |  |  | IC50 [1, 9]: 0.0028 µM; Activity [4]: inactive; Activity [5]: Active |
| Cc1cc2c(c(O)c1-c1c(C)cc3c(c1O)/C(=C/N[C@@H](Cc1c[nH]c4ccccc14)C(=O)[O-])C(=O)C(O)=C3C(C)C)/C(=C/N[C@@H](Cc1c[nH]c3ccccc13)C(=O)[O-])C(=O)C(O)=C2C(C)C.[Na+].[Na+] (stereo in doubt; (+)-12b) | 9.06 | 6.29 | 57 |  |
| Cc1cc2c(c(O)c1-c1c(C)cc3c(c1O)/C(=C/NC(C)S(=O)(=O)O)C(=O)C(O)=C3C(C)C)/C(=C/NC(C)S(=O)(=O)O)C(=O)C(O)=C2C(C)C (single isomer, unassigned; (-)) |  |  |  | Activity [4]: inactive; Activity [5]: Active |
| Cc1cc2c(c(O)c1-c1c(C)cc3c(c1O)/C(=C/NCC(=O)NCC(=O)NCC(=O)[O-])C(=O)C(O)=C3C(C)C)/C(=C/NCC(=O)NCC(=O)NCC(=O)[O-])C(=O)C(O)=C2C(C)C.[Na+].[Na+] (stereo in doubt; (+)-6b) | 6.62 | 9.42 | 62.4 |  |
| Cc1cc2c(c(O)c1-c1c(C)cc3c(c1O)/C(=C/N[C@@H](Cc1ccccc1)C(=O)[O-])C(=O)C(O)=C3C(C)C)/C(=C/N[C@@H](Cc1ccccc1)C(=O)[O-])C(=O)C(O)=C2C(C)C.[Na+].[Na+] (stereo in doubt; (+)-13b) |  | 6.55 | 53.8 | IC50 [1, 9]: 8.21 µM |
| Cc1cc2c(c(O)c1-c1c(C)cc3c(c1O)/C(=C/NC(C)C(=O)NC(C)C(=O)[O-])C(=O)C(O)=C3C(C)C)/C(=C/NC(C)C(=O)NC(C)C(=O)[O-])C(=O)C(O)=C2C(C)C.[Na+].[Na+] (stereo in doubt; (+)-3b) | 5.82 | 10.22 | 59.5 |  |
| Cc1cc2c(c(O)c1-c1c(C)cc3c(c1O)/C(=C/NC(C)C(=O)NC(C)C(=O)[O-])C(=O)C(O)=C3C(C)C)/C(=C/NC(C)C(=O)NC(C)C(=O)[O-])C(=O)C(O)=C2C(C)C.[Na+].[Na+] (single isomer, unassigned; (-)) | 1.43 | 24.99 |  | IC50 [6]: 1.72 µM; Activity [7]: Non-Toxic; IC50 [8]: 7.87 µM; CC50 (TZM): 35.7 µM |
| Cc1cc2c(c(O)c1-c1c(C)cc3c(c1O)/C(=C/NC(C)C(=O)NC(C)C(=O)O)C(=O)C(O)=C3C(C)C)/C(=C/NC(C)C(=O)NC(C)C(=O)O)C(=O)C(O)=C2C(C)C (single isomer, unassigned; (-)) |  |  |  | Activity [4]: inactive; Activity [5]: Active |
| Cc1cc2c(c(O)c1-c1c(C)cc3c(c1O)/C(=C/NC(C)S(=O)(=O)[O-])C(=O)C(O)=C3C(C)C)/C(=C/NC(C)S(=O)(=O)[O-])C(=O)C(O)=C2C(C)C.[Na+].[Na+] (single isomer, unassigned; (+)) |  | 27.81 | 54.8 | IC50 [1, 9]: 1.97 µM |
| Cc1cc2c(c(O)c1-c1c(C)cc3c(c1O)/C(=C/NC(CC(=O)[O-])C(=O)NC(C)C(=O)[O-])C(=O)C(O)=C3C(C)C)/C(=C/NC(CC(=O)[O-])C(=O)NC(C)C(=O)[O-])C(=O)C(O)=C2C(C)C.[Na+].[Na+].[Na+].[Na+] (stereo in doubt; (+)-4b) | 5.35 | 9.56 | 51.2 |  |
| Cc1cc2c(C(C)C)c(O)c(O)c(C=O)c2c(O)c1-c1c(C)cc2c(C(C)C)c(O)c(O)c(C=O)c2c1O [GOSSYPOL] |  |  |  | Activity [7]: Toxic; CC50 (TZM): 18.1 µM and 5.22 µM |
| Cc1cc2c(c(O)c1-c1c(C)cc3c(c1O)/C(=C/N[C@@H]1[C@@H](O)[C@H](O)[C@@H](CO)O[C@H]1O)C(=O)C(O)=C3C(C)C)/C(=C/N[C@@H]1[C@@H](O)[C@H](O)[C@@H](CO)O[C@H]1O)C(=O)C(O)=C2C(C)C (stereo in doubt; (-)-1a) [listing 2 of 2 here] |  |  |  | Activity [4]: inactive; Activity [5]: Active |
| enfuvirtide |  |  |  | IC50 [1, 9]: 0.0905 µM; Activity [4]: inactive; Activity [5]: Active |
| Cc1cc2c(c(O)c1-c1c(C)cc3c(c1O)/C(=C/NC(C)C(=O)NC(C)C(=O)NC(C)C(=O)[O-])C(=O)C(O)=C3C(C)C)/C(=C/NC(C)C(=O)NC(C)C(=O)NC(C)C(=O)[O-])C(=O)C(O)=C2C(C)C.[Na+].[Na+] (single isomer, unassigned; (+)) | 6.39 | 9.19 | 58.7 |  |
